Where a name gives a salt, the structure may show the parent alone.
Molecular target: T1, AR (Homo sapiens, UniProt P10275)
T1 construct: endogenous in cells; host or cells: VCaP cells
T1 sequence (P10275 1-920): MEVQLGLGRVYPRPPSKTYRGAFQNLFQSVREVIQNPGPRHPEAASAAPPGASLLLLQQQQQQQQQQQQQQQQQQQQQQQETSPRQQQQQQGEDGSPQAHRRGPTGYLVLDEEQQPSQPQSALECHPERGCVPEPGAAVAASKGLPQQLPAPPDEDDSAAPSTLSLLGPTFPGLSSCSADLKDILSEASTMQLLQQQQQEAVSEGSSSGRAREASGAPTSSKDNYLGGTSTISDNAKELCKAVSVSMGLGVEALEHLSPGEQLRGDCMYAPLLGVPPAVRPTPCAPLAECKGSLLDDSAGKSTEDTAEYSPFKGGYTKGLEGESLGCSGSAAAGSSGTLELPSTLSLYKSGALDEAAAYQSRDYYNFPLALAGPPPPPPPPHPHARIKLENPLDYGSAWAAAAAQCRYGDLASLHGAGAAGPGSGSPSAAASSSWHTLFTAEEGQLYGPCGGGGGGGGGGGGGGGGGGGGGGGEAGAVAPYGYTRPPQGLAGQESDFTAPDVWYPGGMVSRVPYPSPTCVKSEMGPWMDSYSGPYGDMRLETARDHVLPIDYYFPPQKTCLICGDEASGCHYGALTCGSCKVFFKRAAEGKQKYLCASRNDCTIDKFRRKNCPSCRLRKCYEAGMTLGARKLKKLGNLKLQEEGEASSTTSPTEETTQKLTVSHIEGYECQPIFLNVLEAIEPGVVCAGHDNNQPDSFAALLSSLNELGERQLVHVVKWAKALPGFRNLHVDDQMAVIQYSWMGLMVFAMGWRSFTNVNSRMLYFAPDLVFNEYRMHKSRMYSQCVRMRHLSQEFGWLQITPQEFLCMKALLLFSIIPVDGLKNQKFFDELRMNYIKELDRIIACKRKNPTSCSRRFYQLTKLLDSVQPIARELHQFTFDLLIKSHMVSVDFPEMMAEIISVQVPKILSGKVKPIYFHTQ
Experiment: VCAP AR Degradation Assay
Assay type: cell-based
Conditions: for Y (AR degradation efficiency, % of DMSO control): class symbols *; for DC50: class symbols A-C, read-out: DC50
Method in brief: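 VCaP cells treated 24 h at 37 °C with a 10-point 1:3 series (top 5 μM final; 0.1% DMSO control). Lysate AR measured by sandwich ELISA, normalized to DMSO as percent of control; DC50, EC50 and lowest AR level (Y) from four-parameter logistic fit.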

| SMILES | Y (AR degradation efficiency, % of DMSO control) | DC50 |
| --- | --- | --- |
| CCc1cc(N2C(=S)N(c3ccc(C#N)c(C(F)(F)F)c3)C(=O)C2(C)C)ccc1OC[C@@H](C)N1C[C@@H](C)N(CC(=O)Nc2cccc(NC3CCC(=O)NC3=O)c2)[C@@H](C)C1 (single isomer, unassigned) [Example 237] | ** (25%<Y<=35%) | 100 to 500 nM |
| C[C@@H]1CN(CCOc2ccc(N3C(=S)N(c4cnc(C#N)c(C(F)(F)F)c4)C(=O)C34CCC4)cc2C2CC2)C[C@H](C)N1CC(=O)Nc1cc(NC2CCC(=O)NC2=O)ccc1F (stereo partly drawn) [Example 198, 2-((2S,6R)-4-(2-(4-(7-(6-cyano-5-(trifluoromethyl)pyridin-3-yl)-8-oxo-6-thioxo-5,7-diazaspiro[3.4]octan-5-yl)-2-cyclopropylphenoxy)ethyl)-2,6-dimethylpiperazin-1-yl)-N-(5-(2,6-dioxopiperidin-3-ylamino)-2-fluorophenyl)acetamide] | * (0<Y<=25%) | < 100 nM |
| CC1(C)C(=O)N(c2cnc(C#N)c(C(F)(F)F)c2)C(=S)N1c1ccc(OCCN2CCN(CC(=O)Nc3cc(NC4CCC(=O)NC4=O)ccc3F)CC2)c(CCF)c1 (stereo not drawn) [Example 71, 2-(4-(2-(4-(3-(6-cyano-5-(trifluoromethyl)pyridin-3-yl)-5,5-dimethyl-4-oxo-2-thioxoimidazolidin-1-yl)-2-(2-fluoroethyl)phenoxy)ethyl)piperazin-1-yl)-N-(5-(2,6-dioxopiperidin-3-ylamino)-2-fluorophenyl)acetamide] | * (0<Y<=25%) | < 100 nM |
| CCc1cc(N2C(=S)N(c3cnc(C#N)c(C(F)(F)F)c3)C(=O)C23CCC3)ccc1OCCN1CCN(CC(=O)Nc2cc(Cl)cc(NC3CCC(=O)NC3=O)c2)CC1 (stereo not drawn) [Example 85, N-(3-chloro-5-(2,6-dioxopiperidin-3-ylamino)phenyl)-2-(4-(2-(4-(7-(6-cyano-5-(trifluoromethyl)pyridin-3-yl)-8-oxo-6-thioxo-5,7-diazaspiro[3.4]octan-5-yl)-2-ethylphenoxy)ethyl)piperazin-1-yl)acetamide] | * (0<Y<=25%) | < 100 nM |
| C[C@@H]1CN(CCOc2ccc(N3C(=S)N(c4ccc(C#N)c(C(F)(F)F)c4)C(=O)C3(C)C)cc2C2CC2)C[C@H](C)N1CC(=O)Nc1cccc(N[C@H]2CCC(=O)NC2=O)c1 [Example 289, 2-((2R,6S)-4-(2-(4-(3-(4-cyano-3-(trifluoromethyl)phenyl)-5,5-dimethyl-4-oxo-2-thioxoimidazolidin-1-yl)-2-cyclopropylphenoxy)ethyl)-2,6-dimethylpiperazin-1-yl)-N-(3-((S)-2,6-dioxopiperidin-3-ylamino)phenyl)acetamide] | * (0<Y<=25%) | < 100 nM |
| CCc1cc(N2C(=S)N(c3cnc(C#N)c(C(F)(F)F)c3)C(=O)C2(C)C)ccc1OCCN1CCN(CC(=O)Nc2cccc(NC3CCC(=O)NC3=O)c2)[C@@H](C(F)(F)F)C1 (stereo partly drawn) [Example 200, 2-((R)-4-(2-(4-(3-(6-cyano-5-(trifluoromethyl)pyridin-3-yl)-5,5-dimethyl-4-oxo-2-thioxoimidazolidin-1-yl)-2-ethylphenoxy)ethyl)-2-(trifluoromethyl)piperazin-1-yl)-N-(3-(2,6-dioxopiperidin-3-ylamino)phenyl)acetamide] | * (0<Y<=25%) | < 100 nM |
| CC1(C)C(=O)N(c2ccc(C#N)c(C(F)(F)F)c2)C(=S)N1c1ccc(OCCN2CCN(CC(=O)Nc3cccc(NC4CCC(=O)NC4=O)c3)CC2)c(C(F)(F)F)c1 (stereo not drawn) [Example 12, hydrochloride] | *** (35%<Y<50%) | 100 to 500 nM |
| CC(C)c1cc(N2C(=S)N(c3cnc(C#N)c(C(F)(F)F)c3)C(=O)C23CCC3)ccc1OCCN1C[C@@H](C)N(CC(=O)Nc2cc(NC3CCC(=O)NC3=O)ccc2F)[C@@H](C)C1 (stereo partly drawn) [Example 209, 2-((2S,6R)-4-(2-(4-(7-(6-cyano-5-(trifluoromethyl)pyridin-3-yl)-8-oxo-6-thioxo-5,7-diazaspiro[3.4]octan-5-yl)-2-isopropylphenoxy)ethyl)-2,6-dimethylpiperazin-1-yl)-N-(5-(2,6-dioxopiperidin-3-ylamino)-2-fluorophenyl)acetamide] | ** (25%<Y<=35%) | 100 to 500 nM |
| C[C@@H]1CN(CCOc2ccc(N3C(=S)N(c4cnc(C#N)c(C(F)(F)F)c4)C(=O)C3(C)C)cc2C2CCC2)C[C@H](C)N1CC(=O)Nc1cccc(NC2CCC(=O)NC2=O)c1 (stereo partly drawn) [Example 268, 2-((2R,6S)-4-(2-(4-(3-(6-cyano-5-(trifluoromethyl)pyridin-3-yl)-5,5-dimethyl-4-oxo-2-thioxoimidazolidin-1-yl)-2-cyclobutylphenoxy)ethyl)-2,6-dimethylpiperazin-1-yl)-N-(3-(2,6-dioxopiperidin-3-ylamino)phenyl)acetamide] | ** (25%<Y<=35%) | < 100 nM |
| CCc1cc(N2C(=S)N(c3ccc(C#N)c(Cl)c3)C(=O)C2(C)C)ccc1OCCN1C[C@@H](C)N(CC(=O)Nc2cccc(NC3CCC(=O)NC3=O)c2)[C@@H](C)C1 (stereo partly drawn) [Example 291, 2-((2S,6R)-4-(2-(4-(3-(3-chloro-4-cyanophenyl)-5,5-dimethyl-4-oxo-2-thioxoimidazolidin-1-yl)-2-ethylphenoxy)ethyl)-2,6-dimethylpiperazin-1-yl)-N-(3-((2,6-dioxopiperidin-3-yl)amino)phenyl)acetamide] | * (0<Y<=25%) | < 100 nM |
| CC[C@@H]1CN(CCOc2ccc(N3C(=S)N(c4cnc(C#N)c(C(F)(F)F)c4)C(=O)C34CCC4)cc2C2CC2)CCN1CC(=O)Nc1cccc(NC2CCC(=O)NC2=O)c1 (stereo partly drawn) [Example 262, 2-((R)-4-(2-(4-(7-(6-cyano-5-(trifluoromethyl)pyridin-3-yl)-8-oxo-6-thioxo-5,7-diazaspiro[3.4]octan-5-yl)-2-cyclopropylphenoxy)ethyl)-2-ethylpiperazin-1-yl)-N-(3-(2,6-dioxopiperidin-3-ylamino)phenyl)acetamide] | * (0<Y<=25%) | 100 to 500 nM |
| CCc1cc(N2C(=S)N(c3ccc(C#N)c(C(F)(F)F)c3)C(=O)C23CCC3)ccc1OCCN1CCN(CC(=O)Nc2cccc(NC3CCC(=O)NC3=O)c2)[C@H](C)C1 (stereo partly drawn) [Example 105, 2-((R)-4-(2-(4-(7-(4-cyano-3-(trifluoromethyl)phenyl)-8-oxo-6-thioxo-5,7-diazaspiro[3.4]octan-5-yl)-2-ethylphenoxy)ethyl)-2-methylpiperazin-1-yl)-N-(3-(2,6-dioxopiperidin-3-ylamino)phenyl)acetamide] | * (0<Y<=25%) | < 100 nM |
| CC1(C)C(=O)N(c2cnc(C#N)c(C(F)(F)F)c2)C(=S)N1c1ccc(OCCN2CCN(CC(=O)Nc3cc(Cl)cc(NC4CCC(=O)NC4=O)c3)CC2)c(CCF)c1 (stereo not drawn) [Example 72, N-(3-chloro-5-(2,6-dioxopiperidin-3-ylamino)phenyl)-2-(4-(2-(4-(3-(6-cyano-5-(trifluoromethyl)pyridin-3-yl)-5,5-dimethyl-4-oxo-2-thioxoimidazolidin-1-yl)-2-(2-fluoroethyl)phenoxy)ethyl)piperazin-1-yl)acetamide] | * (0<Y<=25%) | < 100 nM |
| C[C@@H]1CN(CCOc2ccc(N3C(=S)N(c4cnc(C#N)c(C(F)(F)F)c4)C(=O)C34CCC4)cc2C2CC2)C[C@H](C)N1CC(=O)Nc1cc(C#N)cc(NC2CCC(=O)NC2=O)c1 (stereo partly drawn) [Example 212, N-(3-cyano-5-(2,6-dioxopiperidin-3-ylamino)phenyl)-2-((2S,6R)-4-(2-(4-(7-(6-cyano-5-(trifluoromethyl)pyridin-3-yl)-8-oxo-6-thioxo-5,7-diazaspiro[3.4]octan-5-yl)-2-cyclopropylphenoxy)ethyl)-2,6-dimethylpiperazin-1-yl)acetamide] | * (0<Y<=25%) | < 100 nM |
| CC1(C)C(=O)N(c2ccc(C#N)c(C(F)(F)F)c2)C(=S)N1c1ccc(OCCN2CCN(CC(=O)Nc3cc(Cl)cc(NC4CCC(=O)NC4=O)c3)CC2)c(CCF)c1 (stereo not drawn) [Example 136, N-(3-chloro-5-(2,6-dioxopiperidin-3-ylamino)phenyl)-2-(4-(2-(4-(3-(4-cyano-3-(trifluoromethyl)phenyl)-5,5-dimethyl-4-oxo-2-thioxoimidazolidin-1-yl)-2-(2-fluoroethyl)phenoxy)ethyl)piperazin-1-yl)acetamide] | * (0<Y<=25%) | < 100 nM |
